Laboratory results reported in PMC7436049, “Combining In Silico and In Vitro Studies to Evaluate the Acetylcholinesterase Inhibitory Profile of Different Accessions and the Biomarker Triterpenes of Centella asiatica” (Molecules, 2020).
Like-named read-outs stand apart in the source and are kept apart here.

Target: T1, acetylcholinesterase from electrophorus electricus (Electrophorus electricus, UniProt O42275)
T1 construct: purchased Sigma–Aldrich (St. Louis, MO, USA)
Experiment: biochemical
Settings: read-out: AChE inhibitory activity, IC50 Values (converted)
Procedure: All solvents were HPLC grade, purchased from Merck (Darmstadt, Germany). […] Sodium monobasic […] were purchased from Merck (Darmstadt, Germany), and acetylcholinesterase from electrophorus electricus, 5,5′-Dithiobis (2-nitrobenzoic acid), and […] were obtained from Sigma–Aldrich (St. Louis, MO, USA).
The AChE inhibitory activity was evaluated using Ellman’s method, as reported previously. Each sample (20 µL of 5 mg/mL in DMSO) was dispensed in triplicate into a 96-well microplate and mixed with 190 µL of DTNB, 20 µL of substrate (ATCI). The control wells contained 2% of DMSO instead of the extract. The enzymatic activity was measured at 412 nm every 30 s intervals for 3 min. The buffer solution was used as negative control.
The percentage inhibition (%I) of each sample and the positive control (physostigmine) was calculated using the formula:%I: [(Ac − As)/(Ac)] × 100(1) where (%I): Percentage inhibition • Ac: Absorbance of negative control • As: Absorbance of sample
The experiments were expressed as the mean ± standard error of the mean (SEM) in triplicates.

[1] = Ellman's method, 412 nm, mean ± SEM, triplicates

T1 sequence (O42275 24-633): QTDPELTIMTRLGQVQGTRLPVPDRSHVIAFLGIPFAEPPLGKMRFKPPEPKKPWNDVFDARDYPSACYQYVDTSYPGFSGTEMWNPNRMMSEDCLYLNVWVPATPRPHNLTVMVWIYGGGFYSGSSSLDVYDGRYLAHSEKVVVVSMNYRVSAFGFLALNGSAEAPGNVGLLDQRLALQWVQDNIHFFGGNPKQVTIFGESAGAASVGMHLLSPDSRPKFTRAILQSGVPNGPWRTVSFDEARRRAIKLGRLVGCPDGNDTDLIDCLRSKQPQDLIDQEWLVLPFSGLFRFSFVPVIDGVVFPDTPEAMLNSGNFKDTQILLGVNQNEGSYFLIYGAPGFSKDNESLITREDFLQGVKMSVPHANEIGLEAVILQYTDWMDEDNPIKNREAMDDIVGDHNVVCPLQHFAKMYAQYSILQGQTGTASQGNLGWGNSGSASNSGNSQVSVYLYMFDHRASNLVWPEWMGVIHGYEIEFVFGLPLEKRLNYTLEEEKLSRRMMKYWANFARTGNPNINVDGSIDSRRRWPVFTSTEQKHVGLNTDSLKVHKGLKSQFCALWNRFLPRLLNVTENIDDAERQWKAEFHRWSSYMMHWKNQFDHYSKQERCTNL

Row | SMILES | IC50 | IC50 [1]
1 | C[C@H]1[C@H](C)CC[C@]2(C(=O)O[C@@H]3O[C@H](CO[C@@H]4O[C@H](CO)[C@@H](O[C@@H]5O[C@@H](C)[C@H](O)[C@@H](O)[C@H]5O)[C@H](O)[C@H]4O)[C@@H](O)[C@H](O)[C@H]3O)CC[C@]3(C)C(=CC[C@@H]4[C@@]5(C)C[C@@H](O)[C@H](O)[C@@](C)(CO)[C@@H]5[C@H](O)C[C@]43C)[C@H]12 [Madecassoside, madecassoside] | 38.1 µM | 
2 | C[C@H]1[C@H](C)CC[C@]2(C(=O)O)CC[C@]3(C)C(=CC[C@@H]4[C@@]5(C)C[C@@H](O)[C@H](O)[C@@](C)(CO)[C@@H]5CC[C@]43C)[C@H]12 [Asiatic acid, asiatic acid] |  | 30.8 µM
3 | C[C@H]1[C@H](C)CC[C@]2(C(=O)O)CC[C@]3(C)C(=CC[C@@H]4[C@@]5(C)C[C@@H](O)[C@H](O)[C@@](C)(CO)[C@@H]5[C@H](O)C[C@]43C)[C@H]12 [Madecassic acid, madecassic acid] |  | 35.3 µM
